Here are results for one compound from PMC9698340, “Discovery and SAR Study of Quinoxaline–Arylfuran Derivatives as a New Class of Antitumor Agents” (Pharmaceutics, 2022).

The test system of test [1] is HeLa cells. The test is described as follows: Wound healing assay. In kind it is cell-based, human. The conditions noted are these: after 48 h, control 55.7%. The protocol: A total of 1 × 10^6 cells/well in the logarithmic growth phase were seeded in 6-well plates. When cell density reached 80 to 90%, a scratch was made in the monolayer in the middle of the well with a 200 μL pipette tip. The tip was kept perpendicular to the bottom of the well to obtain a straight gap. The detached cells were washed away and removed. The healing of the wound within the same scraped line was then observed and photographed at the indicated time points (0 h, 24 h, 48 h). Each experiment was repeated three times.

The subject of test [2] is Bcl-2 and Bax in HeLa cells. Briefly: Western blot of Bcl-2 and Bax. Type of test: cell-based, human. To be noted: 24 h. Here is the method:
HeLa cells were seeded in a 6-well plate overnight and treated with QW12 for 24 h. The cells were then harvested and washed with cold PBS and lysed with RIPA buffer supplemented with a protease and phosphatase inhibitor cocktail. Protein concentration was measured using a BCA protein assay kit (Boster Biological Technology Co., Ltd., Wuhan, China). Proteins were separated by 10% SDS-PAGE gel and transferred onto polyvinylidene difluoride (PVDF) membranes (Millipore Co., Billerica, MA, USA). After blocking with 5% mild in PBST for 1 h at room temperature, membranes were incubated with specific primary antibodies against STAT3 (#ET1605-45), Bcl-2 (#ET1603-11), Bax (#ET1603-34), or GAPDH (#HA721136) overnight at 4 °C. The above antibodies were purchased from HUABIO, China. Phospho-STAT3 (Tyr 705) (#9145S) and anti-rabbit IgG, HRP-linked antibody (#7074S) were purchased from Cell Signaling Technology, Inc. America. The next day, the membranes were washed with PBST three times and incubated with secondary antibodies 2 h at room temperature. Images were captured and documented with a CCD system (Tanon 5200, Biotanon, Shanghai, China).

For test [3], the system named is HeLa cells. The test is described as follows: Annexin V-FITC/PI apoptosis assay, flow cytometry. The conditions noted are these: control 3.5%. Type of test: cell-based, human. The protocol: For the Annexin V apoptosis assay, cells were collected at the end of the treatment, washed with cold PBS, and stained with the PI/Annexin V-FITC apoptosis kit (4A Biotech Co., Ltd., Beijing, China) following the manufacturer’s instructions. All flow cytometric analyses were performed at the Tianfu Science and Technology Park Molecular and Cell Platform in the West China Hospital.
On the technique in general: Flow cytometry measures light scatter and fluorescence of single cells or particles in a stream.

The subject of test [4] is phosphorylated AKT (T308) in HeLa cells. The test is described as follows: Western blot of AKT (T308) phosphorylation. Type of test: cell-based, human. The conditions noted are these: total AKT not affected, reversed by NAC.
For test [5], the system named is HeLa cells. Briefly: Colony formation (plate-cloning) assay. Type of test: cell-based, human. The conditions noted are these: different concentrations, 24 h treatment. Here is the method:
HeLa cells were digested and seeded directly in 6-well plates (1 × 10^3 cells/well) for the colony-formation assay and cultured in the presence of 10% FBS and 1% penicillin/streptomycin at 37 °C with 5% CO2 for 12 h in confluent cell monolayers. The cells were then treated with QW12 at the indicated concentrations for 24 h. Two weeks later, the medium was removed, and the plates were washed with phosphate-buffered saline (PBS) three times. Cells were fixed with anhydrous ethanol for 30 min and then stained with Giemsa dye solution (Solarbio) for 30 min. The plates were dried with a blower to ensure high-quality images were obtained. Colonies were defined as >50 cells/colony.

Test [6] has as its system HeLa cells. The test is described as follows: Cell cycle analysis, PI flow cytometry. Type of test: cell-based, human. The conditions noted are these: 24 h. The protocol: For cell cycle analysis, cells were collected after treatment, washed twice with cold PBS, fixed in 70% ethanol overnight, and stained with PI ([…], Sigma, Shanghai, China), plus 0.2 mg/mL of DNase-free RNase A (Qiagen) for 1 h at 4 °C.

Another test has as its system A549 cells. The test is described as follows: CCK-8 antiproliferation assay, A549. Type of test: cell-based. To be noted: Homo sapiens, 48 h. Here is the method:
Human lung carcinoma cell lines A549, human cervical cancer cell lines HeLa, human prostate cancer cell lines PC3, human colorectal carcinoma cell lines HCT116, and human liver cells L02 were purchased from the Chinese Academy of Sciences Shanghai Cell Bank (Shanghai, China). HeLa, A549, PC3, HCT116, and L02 cells were cultured in DMEM Dulbecco’s Modified Eagle Medium (DMEM; Gibco Inc., Gaithersburg, MD, USA). All cultures were provided with 10% fetal bovine serum (FBS; YHSM, Beijing, China), 100 IU/mL penicillin, and 100 μg/mL streptomycin, and cells were incubated at 37 °C in an atmosphere of 5% CO2.
Cell viability was determined using a CCK-8 kit (Apexbio, Houston, TX, USA). […] Subsequently, absorbance was assessed at 450 nm. Three duplicates were set in each group.
All synthesized quinoxalines compounds were tested for in vitro cytotoxicity against four cancer cell lines (HeLa, PC3, A549, and HCT116). The inhibitory effects of these compounds were evaluated using the CCK-8 assay after treatment with 20 μM of each compound. […] The species of phenyl substituents have a significant effect on the activity. […] By comparison, hydrophobic substitution at the phenyl ring gave derivatives with relatively low potency (QW7–8). In addition, large substituents on the phenyl ring exerted an unfavorable influence on the potency of the compounds (QW8 and QW16).
Background: Tetrazolium assays rely on reduction of a dye to a coloured formazan, in cell work by metabolically active cells.

A further test concerns the target recombinant STAT3 (Homo sapiens, UniProt P40763). The test is described as follows: Biolayer interferometry (BLI) assay. The conditions noted are these: His-tagged STAT3 on SSA biosensors, QW12 5.2 to 333 μM, read-out: binding affinity (KD) to STAT3. Here is the method:
BLI assays were performed using the BLItz system (Sartorius). Biosensors were first equilibrated 10 min in 1X kinetic buffer (Sartorius) consisting of PBS with 0.02% Tween20 and 0.1% BSA. Subsequently, depending on the assay, STAT3 was loaded onto the corresponding biosensor at a concentration of 1.9 µg/µL, as indicated in the Sartorius biosensor datasheets, for an appropriate time interval. The concentration range for the associating protein was chosen, when possible, based on the KD value available from the literature or experimentally determined for all scenarios wherein KD values were unknown. The data recorded were analyzed by means of the BLItz software and MATLAB to extrapolate the kinetic parameters. All association and dissociation curves were fitted by a single exponential function. Each acquisition was repeated twice to confirm reproducibility.
To confirm whether QW12 is a direct STAT3 inhibitor, a BLI (biolayer interferometry) analysis was performed. Briefly, recombinant STAT3 with a His tag was immobilized on SSA biosensors, and the dissociation constants were determined by measuring the binding to serial dilutions of QW12 at concentrations ranging from 5.2 to 333 μM (Figure 9A).
Background: Biolayer interferometry detects binding as a change in optical thickness at a sensor tip.

[7] abbreviates: HeLa cells, 10, 40 μM, vs control.

Sequence of recombinant STAT3 (P40763 whole entry, species assumed): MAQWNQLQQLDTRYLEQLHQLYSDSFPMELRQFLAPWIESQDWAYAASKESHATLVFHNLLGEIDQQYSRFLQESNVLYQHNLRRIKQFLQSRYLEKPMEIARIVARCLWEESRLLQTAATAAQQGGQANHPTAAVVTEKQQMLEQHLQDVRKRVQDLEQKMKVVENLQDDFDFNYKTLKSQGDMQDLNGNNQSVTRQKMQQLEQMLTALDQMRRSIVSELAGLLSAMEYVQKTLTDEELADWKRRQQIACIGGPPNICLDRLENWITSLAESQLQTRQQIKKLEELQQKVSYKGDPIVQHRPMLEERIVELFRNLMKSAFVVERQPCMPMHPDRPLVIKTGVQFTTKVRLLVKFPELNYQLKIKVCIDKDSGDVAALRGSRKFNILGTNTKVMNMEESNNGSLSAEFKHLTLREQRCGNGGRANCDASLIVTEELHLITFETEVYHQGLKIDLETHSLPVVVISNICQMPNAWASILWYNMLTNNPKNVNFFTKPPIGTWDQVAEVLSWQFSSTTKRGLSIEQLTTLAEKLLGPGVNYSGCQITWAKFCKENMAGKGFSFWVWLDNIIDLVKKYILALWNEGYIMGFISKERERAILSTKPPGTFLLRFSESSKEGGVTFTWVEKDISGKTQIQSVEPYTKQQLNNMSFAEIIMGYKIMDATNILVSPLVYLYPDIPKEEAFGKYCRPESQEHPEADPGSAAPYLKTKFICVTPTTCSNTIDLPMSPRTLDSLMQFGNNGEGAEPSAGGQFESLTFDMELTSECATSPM

As a reminder, the inhibition is the relative decrease from the control value, in per cent. The term IC50 denotes the concentration that inhibits the measured activity by half. As a reminder, the Kd is a measure of binding affinity in units of concentration. As for `COc1cc(-c2ccc(/C=N/NC(=O)c3ccc(O)cc3)o2)c(OC)cc1-c1ccc2nccnc2c1` [QW12, (E)-N’-((5-(2,5-dimethoxy-4-(quinoxalin-6-yl)phenyl)furan-2-yl)methylene)-4-hydroxybenzohydrazide], the “rate of scratch closure” value in the test with HeLa cells [1] (10 μM) turned out to be 28.0%; in the test with HeLa cells [1] (40 μM), 17.2%. The Bcl-2/Bax expression ratio in test [2] (40 μM, control 1.00) is reported as 0.66 ± 0.01. For the same compound, the Bax expression result in test [2] (setting [7]) is given as “increased slightly”. For the same compound, the Bcl-2 expression result in test [2] (setting [7]) is “decreased significantly”. Further, the cell apoptosis rate with HeLa cells [3] (10 μM) worked out at 13.9%; in the test with HeLa cells [3] (40 μM), 34.7%. For the same compound, the “effect on phosphorylated AKT levels (T308)” value in test [4] was “significantly decreased”. Moreover, in the test with HeLa cells [5], the “effect on proliferation in plate-cloning assay” value is on record as “proliferated at a significantly lower rate than the control”. For the same compound, the results for the “HeLa cell population in the S phase” value in the test with HeLa cells [6] (10 μM) and with HeLa cells [6] (40 μM) were 23.19% and 51.88%, respectively. The “percentage of cells in phases G0/G1 and G2/M” value in the test with HeLa cells [6] (10 and 40 μM) is “decreased significantly”. Moreover, the inhibition at 20 µM with A549 cells (20 μM, CCK-8, mean ± SD, read-out: Inhibition Rate (%) at 20 μM, A549) came to 50.8 ± 0.62%. Further, in the test with A549 cells (CCK-8, read-out: IC50 ± SD, A549), the IC50 came to 20.6 ± 1.22 µM. For the same compound, on recombinant STAT3, the Kd came to 67.3 µM.
